Experiments:
Type in all cases: cell-based
[1] = system: Escherichia coli (ATCC 8739); test: MIC determination (antibacterial susceptibility test, CLSI / Hungarian Pharmacopeia); conditions: for MIC: Escherichia coli, ATCC8739, tested range 6.25–100 µg/mL; for MIC Escherichia coli (ATCC 8739): tested range 6.25–100 µg/mL
Procedure: (§1) The antimicrobial activity of twenty-two cationic hexopyranoside-amidinium salts (3, 10, 11, 12, 21, 22, 23, 24, 29, 30, 32, 37, 38, 45, 46, 47, 48, 49, 50, 51, 52 and 53) were compared in susceptibility tests (Table 2). The effectiveness of all compounds was tested on Staphylococcus aureus ssp. aureus (ATCC 6538), Escherichia coli (ATCC 8739) and Candida albicans (ATCC 10231). We tested the antimicrobial activity of the compounds at the concentration range of 6.25–100 µg/mL.
(§2) The detection of the antibacterial and antifungal effects of the tested compounds and the determination of the minimum inhibitory concentration (MIC) were carried out based on the method of CLSI [48] and Hungarian Pharmacopeia (chapters VIII. 2.6.12–13.).
(§3) For the antimicrobial studies, we used three human pathogens as test organisms: Candida albicans (ATCC 10231), Staphylococcus aureus subspecies aureus (ATCC 6538) and Escherichia coli (ATCC 8739).
(§4) Staphylococcus aureus subspecies aureus and Escherichia coli were cultured on tryptic soya agar (TSA) for 18–24 h at 37 °C. Candida albicans was cultured on Sabouraud dextrose agar (SDA) for 18–24 h at 37 °C. To obtain cells for suspension, we made cell suspensions from Staph. aureus, E. coli and C. albicans with the cotton swab suspension technique. The dilution of suspension was then made with 0.85% NaCl solution, absorbance being set to A600nm = 0.06. a volume of 10 μL of these suspensions contained ~4.5–6.0 × 10^4 colony forming unit (CFU) (bacteria) and ~1.5–2.0 × 10^3 CFU for yeast.
(§5) Tested agents were diluted with DMSO; the concentration of stock solutions was 4 mg/mL; and to ensure sterility, the closed sample containers were incubated at 35 °C for 1 h. The highest final concentration was 100 μg/mL.
(§6) Testing was performed in 24-well plates, and cell suspensions were prepared with 0.85% NaCl solution. Stock solutions were made from the agents with DMSO (100%). Final concentrations of used compounds were 6.25–100 µg/mL. […] After inoculation, plates were incubated at 35 °C, and results were then read visually after 18–24 h. If microbial growth could not be detected, results were read visually after 72 h. If there was no growth after 72 h, incubation was continued till the fifth day of the experiment and the results were read visually and with plate reader at 600 nm after 120 h.
(§7) The MIC value of a compound was defined as the minimal concentration that inhibits the growth of bacteria and yeasts comparing to the control. The results of the antibacterial and antifungal tests were read visually after 24, 48, 72 and 120 h. The microbial growth was measured by plate reader at 600 nm after 120 h.

[2] = system: Staphylococcus aureus ssp. aureus (ATCC 6538); test: as above; conditions: for MIC: Staphylococcus aureus, ATCC6538, tested range 6.25–100 µg/mL; for MIC Staphylococcus aureus (ATCC 6538): tested range 6.25–100 µg/mL
Procedure: as §1, §2, §3, §4, §5, §6, §7

[3] = system: Candida albicans (ATCC 10231); test: MIC determination (antifungal susceptibility test); conditions: Candida albicans, ATCC10231, tested range 6.25–100 µg/mL; read-out: MIC Candida albicans (ATCC 10231)
Procedure: as §1, §2, §3, §4, §5
as §6, with “Final concentrations of used compounds were 6.25–100 µg/mL.” left out
as §7

Row | Structure (SMILES) | MIC [1] [µg/mL] | MIC [2] [µg/mL] | MIC [3] [µg/mL] | MIC Escherichia coli (ATCC 8739) [1] [µg/mL] | MIC Staphylococcus aureus (ATCC 6538) [2] [µg/mL]
1 | O=C(O[C@@H]1[C@H](OC(=O)c2ccccc2)[C@@H](Sc2ccccc2)O[C@H](C[N+]2=C3CCCCCN3CCC2)[C@H]1OCc1ccc2ccccc2c1)c1ccccc1 [Compound 23] | > 100 | > 100 | > 100 |  | 
2 | c1ccc(CO[C@H]2[C@H](OCc3ccccc3)[C@@H](Sc3ccccc3)O[C@H](C[N+]3=C4CCCCCN4CCC3)[C@H]2OCc2ccc3ccccc3c2)cc1 [Compound 37] | > 100 |  | > 100 |  | 
3 | O[C@H]1[C@H](OCc2ccccc2)[C@H](OCc2ccccc2)[C@@H](Sc2ccccc2)O[C@@H]1C[N+]1=C2CCCCCN2CCC1 [Compound 50, 8-N-[phenyl 2,3-di-O-benzyl-6-deoxy-6-yl-1-thio-α-D-mannopyranoside]-1,8-diazabicyclo(5.4.0)undec-7-ene-chloride] | > 100 |  |  |  | 
4 | O[C@H]1[C@@H](OCc2ccccc2)[C@H](OCc2ccc3ccccc3c2)[C@@H](C[N+]2=C3CCCCCN3CCC2)O[C@@H]1Sc1ccccc1 [Compound 53, 8-N-[phenyl 3-O-benzyl-6-deoxy-6-yl-4-O-(2′-naphthyl)methyl-1-thio-α-D-mannopyranoside]-1,8-diazabicyclo(5.4.0)undec-7-ene-acetate] | > 100 | 6.25 to 50 | 6.25 to 50 |  | 
5 | CCS[C@H]1O[C@H](C[N+]2=C3CCCCCN3CCC2)[C@@H](O)[C@H](OCc2ccccc2)[C@H]1OCc1ccccc1 [Compound 48, 8-N-[ethyl 2,3-di-O-benzyl-6-deoxy-6-yl-1-thio-α-D-glucopyranoside]-1,8-diazabicyclo(5.4.0)undec-7-ene-chloride] | > 100 |  |  |  | 
6 | CCS[C@H]1O[C@H](C[N+]2=C3CCCCCN3CCC2)[C@@H](OCc2ccc3ccccc3c2)[C@H](OC(=O)c2ccccc2)[C@H]1OC(=O)c1ccccc1 [Compound 11] | > 100 | > 100 | > 100 | >100 | >100
7 | CCS[C@H]1O[C@H](C[N+]2=C3CCCCCN3CCC2)[C@@H](OCc2ccc3ccccc3c2)[C@@H](OC(=O)c2ccccc2)[C@H]1OC(=O)c1ccccc1 [Compound 30] | ≥ 100 |  |  |  | 
8 | O=C(O[C@H]1[C@@H](OCc2ccccc2)[C@H](OCc2ccc3ccccc3c2)[C@@H](C[N+]2=C3CCCCCN3CCC2)O[C@@H]1Sc1ccccc1)c1ccccc1 [Compound 24] | ≥ 100 | 6.25 to 50 |  |  | 

Next, values leading:

Row | MIC [1] [µg/mL] | MIC [2] [µg/mL] | MIC [3] [µg/mL] | MIC Escherichia coli (ATCC 8739) [1] [µg/mL] | MIC Staphylococcus aureus (ATCC 6538) [2] [µg/mL] | Structure (SMILES)
9 | > 100 | > 100 | > 100 | >100 | >100 | O=C(O[C@H]1[C@H](OC(=O)c2ccccc2)[C@@H](Sc2ccccc2)O[C@H](C[N+]2=C3CCCCCN3CCC2)[C@H]1OCc1ccc2ccccc2c1)c1ccccc1 [Compound 38]
10 | > 100 | > 100 | > 100 | >100 | >100 | O[C@@H]1[C@H](OCc2ccccc2)[C@@H](Sc2ccccc2)O[C@H](C[N+]2=C3CCCCCN3CCC2)[C@H]1OCc1ccccc1 [Compound 49, 8-N-[phenyl 2,4-di-O-benzyl-6-deoxy-6-yl-1-thio-α-D-mannopyranoside]-1,8-diazabicyclo(5.4.0)undec-7-ene-chloride]
11 | > 100 | 6.25 to 50 |  |  |  | O[C@@H]1[C@H](O)[C@@H](Sc2ccccc2)O[C@H](C[N+]2=C3CCCCCN3CCC2)[C@H]1OCc1ccc2ccccc2c1 [Compound 51, 8-N-[phenyl 6-deoxy-6-yl-4-O-(2′-naphthyl)methyl-1-thio-α-D-mannopyranoside]-1,8-diazabicyclo(5.4.0)undec-7-ene-chloride]
12 | > 100 | > 100 | > 100 |  |  | O=C(O[C@H]1[C@@H](OCc2ccccc2)[C@H](O)[C@@H](C[N+]2=C3CCCCCN3CCC2)O[C@@H]1Sc1ccccc1)c1ccccc1 [Compound 52, 8-N-[phenyl 2-O-benzoyl-3-O-benzyl-6-deoxy-6-yl-1-thio-α-D-mannopyranoside]-1,8-diazabicyclo(5.4.0)undec-7-ene-chloride]
